# Laboratory results as given in ChEMBL document CHEMBL3045428, “Hypolipidemic, hepato-protective and renal damage recovering effects of catechin isolated from the methanolic extract of Cassia fistula stem bark on Streptozotocin-induced diabetic Wistar rats: a biochemical and morphological analysis” (Med Chem Res, 2012).
# Activity calls are given as the source filed them. The rule behind the calls is not given here.
# Tests used:
# Rattus norvegicus [1] = test: Antidiabetic activity against STZ-induced diabetic Rattus norvegicus Wistar albino (rat) assessed as change in glycosylated hemoglobin of total hemoglobin at 20 mg/kg, po administered via intragastric tube for 45 days (reference value: 0.89 +/-0.03 %); assay type: functional
# Rattus norvegicus [2] = test: Hepatoprotective activity in STZ-induced diabetic Rattus norvegicus Wistar albino (rat) assessed as re-apperance of hepatic lobules at 20 mg/kg, po administered via intragastric tube for 45 days using hematoxylin/eosin staining method; assay type: functional, organism-based; design: dose 20 mg/kg; settings: Liver
# Rattus norvegicus [3] = test: Nephroprotective activity in STZ-induced diabetic Rattus norvegicus Wistar albino (rat) assessed as change in serum total protein level at 20 mg/kg, po administered via intragastric tube for 45 days (reference value: 3.7 +/-0.9 g/dl); assay type: functional
# Rattus norvegicus [4] = test: Hepatoprotective activity in STZ-induced diabetic Rattus norvegicus Wistar albino (rat) assessed as plasma AST level at 20 mg/kg, po administered via intragastric tube for 45 days (reference value: 85.5 +/-9.21 ug/dl); assay type: functional
# Rattus norvegicus [5] = test: Nephroprotective activity in STZ-induced diabetic Rattus norvegicus Wistar albino (rat) assessed as change in serum urea level at 20 mg/kg, po administered via intragastric tube for 45 days (reference value: 41.5 +/-4.9 mg/dl); assay type: functional
# Rattus norvegicus [6] = test: Antidiabetic activity against STZ-induced diabetic Rattus norvegicus Wistar albino (rat) assessed as serum cholesterol level at 20 mg/kg, po administered via intragastric tube for 45 days (reference value: 295.5 +/-17.1 mg/dl); assay type: functional
# Rattus norvegicus [7] = test: Nephroprotective activity in STZ-induced diabetic Rattus norvegicus Wistar albino (rat) assessed as reduction in enlargement of glomerulus at 20 mg/kg, po administered via intragastric tube for 45 days using hematoxylin/eosin staining method; assay type: functional, organism-based; design: dose 20 mg/kg
# Rattus norvegicus [8] = test: Hepatoprotective activity in STZ-induced diabetic Rattus norvegicus Wistar albino (rat) assessed as plasma ACP level at 20 mg/kg, po administered via intragastric tube for 45 days (reference value: 28.7 +/-2.61 ug/dl); assay type: functional
# Rattus norvegicus [9] = test: Hepatoprotective activity in STZ-induced diabetic Rattus norvegicus Wistar albino (rat) assessed as plasma ALT level at 20 mg/kg, po administered via intragastric tube for 45 days (reference value: 97.11 +/-10.3 ug/dl); assay type: functional
# Rattus norvegicus [10] = test: Hepatoprotective activity in STZ-induced diabetic Rattus norvegicus Wistar albino (rat) assessed as plasma ALP level at 20 mg/kg, po administered via intragastric tube for 45 days (reference value: 91.1 +/-9.2 ug/dl); assay type: functional
# Rattus norvegicus [11] = test: Nephroprotective activity in STZ-induced diabetic Rattus norvegicus Wistar albino (rat) assessed as change in serum creatinine level at 20 mg/kg, po administered via intragastric tube for 45 days (reference value: 2.1 +/-0.9 mg/dl); assay type: functional
# Rattus norvegicus [12] = test: Antidiabetic activity against STZ-induced diabetic Rattus norvegicus Wistar albino (rat) assessed as serum LDL level at 20 mg/kg, po administered via intragastric tube for 45 days (reference value: 165.7 +/-14.35 mg/dl); assay type: functional
# Rattus norvegicus [13] = test: Antidiabetic activity against STZ-induced diabetic Rattus norvegicus Wistar albino (rat) assessed as serum triglyceride level at 20 mg/kg, po administered via intragastric tube for 45 days (reference value: 65.5 +/-7.9 mg/dl); assay type: functional
# Rattus norvegicus [14] = test: Nephroprotective activity in STZ-induced diabetic Rattus norvegicus Wistar albino (rat) assessed as reduction in glomerular expansion at 20 mg/kg, po administered via intragastric tube for 45 days using hematoxylin/eosin staining method; assay type: functional, organism-based; design: dose 20 mg/kg
# Rattus norvegicus [15] = test: Antidiabetic activity against STZ-induced diabetic Rattus norvegicus Wistar albino (rat) assessed as serum VLDL level at 20 mg/kg, po administered via intragastric tube for 45 days (reference value: 55.2 +/-4.5 mg/dl); assay type: functional
# Rattus norvegicus [16] = test: Antidiabetic activity against STZ-induced diabetic Rattus norvegicus Wistar albino (rat) assessed as change in hemoglobin at 20 mg/kg, po administered via intragastric tube for 45 days (reference value: 8.5 +/-0.9 mg/dl); assay type: functional
# Rattus norvegicus [17] = test: Antidiabetic activity against STZ-induced diabetic Rattus norvegicus Wistar albino (rat) assessed as serum HDL level at 20 mg/kg, po administered via intragastric tube for 45 days (reference value: 25.8 +/-1.6 mg/dl); assay type: functional
# Rattus norvegicus [18] = test: Nephroprotective activity in STZ-induced diabetic Rattus norvegicus Wistar albino (rat) assessed as change in serum uric acid level at 20 mg/kg, po administered via intragastric tube for 45 days (reference value: 1.5 +/-0.9 mg/dl); assay type: functional
# Rattus norvegicus [19] = test: Antidiabetic activity against STZ-induced diabetic Rattus norvegicus Wistar albino (rat) assessed as change in body weight at 20 mg/kg, po administered via intragastric tube for 45 days (reference value: 243.67 +/-8.9 g); assay type: functional
# Rattus norvegicus [20] = test: Nephrotoxicity in Rattus norvegicus Wistar albino (rat) assessed as change in serum total protein level at 20 mg/kg, po administered via intragastric tube for 45 days (reference value: 8.12 +/- 1.0 g/dl ); assay type: toxicity, organism-based; design: dose 20 mg/kg, route oral; settings: in vivo, 1080 h
# Rattus norvegicus [21] = test: Toxicity in Rattus norvegicus Wistar albino (rat) assessed as serum HDL level at 20 mg/kg, po administered via intragastric tube for 45 days (Rvb =65.21 +/-6.9 mg/dl); assay type: organism-based; design: dose 20 mg/kg, route oral; settings: in vivo, 1080 h
# Rattus norvegicus [22] = test: Hepatotoxicity in Rattus norvegicus Wistar albino (rat) assessed as change in plasma ALT level at 20 mg/kg, po administered via intragastric tube for 45 days (reference value: 56.72 +/-5.2 ug/dl); assay type: toxicity, organism-based; design: dose 20 mg/kg, route oral; settings: in vivo, 1080 h
# Rattus norvegicus [23] = test: Toxicity in Rattus norvegicus Wistar albino (rat) assessed as change in glycosylated hemoglobin of total hemoglobin at 20 mg/kg, po administered via intragastric tube for 45 days (reference value: 0.52 +/-0.03 % ); assay type: organism-based; design: dose 20 mg/kg, route oral; settings: in vivo, 1080 h
# Rattus norvegicus [24] = test: Toxicity in Rattus norvegicus Wistar albino (rat) assessed as change in body weight at 20 mg/kg, po administered via intragastric tube for 45 days (reference value: 238.2 +/-7.3 g); assay type: organism-based; design: dose 20 mg/kg, route oral; settings: in vivo, 1080 h
# Rattus norvegicus [25] = test: Toxicity in Rattus norvegicus Wistar albino (rat) assessed as serum cholesterol level at 20 mg/kg, po administered via intragastric tube for 45 days (reference value: 97.72 +/-7.3 mg/dl); assay type: organism-based; design: dose 20 mg/kg, route oral; settings: in vivo, 1080 h
# Rattus norvegicus [26] = test: Hepatotoxicity in Rattus norvegicus Wistar albino (rat) assessed as change in plasma ALP level at 20 mg/kg, po administered via intragastric tube for 45 days (reference value: 49.99+/-4.7 ug/dl); assay type: toxicity, organism-based; design: dose 20 mg/kg, route oral; settings: in vivo, 1080 h
# Rattus norvegicus [27] = test: Nephrotoxicity in Rattus norvegicus Wistar albino (rat) assessed as change in creatinine level in serum at 20 mg/kg, po administered via intragastric tube for 45 days (reference value: 1.62 +/- 0.2 mg/dl ); assay type: toxicity, organism-based; design: dose 20 mg/kg, route oral; settings: in vivo, 1080 h
# Rattus norvegicus [28] = test: Toxicity in Rattus norvegicus Wistar albino (rat) assessed as change in hemoglobin level at 20 mg/kg, po administered via intragastric tube for 45 days (reference value: 15.12 +/-1.3 mg/dl ); assay type: organism-based; design: dose 20 mg/kg, route oral; settings: in vivo, 1080 h
# Rattus norvegicus [29] = test: Nephrotoxicity in Rattus norvegicus Wistar albino (rat) assessed as change in urea level in serum at 20 mg/kg, po administered via intragastric tube for 45 days (reference value: 24.12 +/- 2.3 mg/dl ); assay type: toxicity, organism-based; design: dose 20 mg/kg, route oral; settings: in vivo, 1080 h
# Rattus norvegicus [30] = test: Hepatotoxicity in Rattus norvegicus Wistar albino (rat) assessed as change in plasma ACP level at 20 mg/kg, po administered via intragastric tube for 45 days (reference value: 9.97+/-1.1 ug/dl); assay type: toxicity, organism-based; design: dose 20 mg/kg, route oral; settings: in vivo, 1080 h
# Rattus norvegicus [31] = test: Hepatotoxicity in Rattus norvegicus Wistar albino (rat) assessed as change in plasma AST level at 20 mg/kg, po administered via intragastric tube for 45 days (reference value: 39.6 +/-3.3 ug/dl); assay type: toxicity, organism-based; design: dose 20 mg/kg, route oral; settings: in vivo, 1080 h
# Rattus norvegicus [32] = test: Nephrotoxicity in Rattus norvegicus Wistar albino (rat) assessed as change in uric acid level in serum at 20 mg/kg, po administered via intragastric tube for 45 days (reference value: 0.96 +/- 0.93 mg/dl ); assay type: toxicity, organism-based; design: dose 20 mg/kg, route oral; settings: in vivo, 1080 h
# Rattus norvegicus [33] = test: Toxicity in Rattus norvegicus Wistar albino (rat) assessed as serum triglyceride level at 20 mg/kg, po administered via intragastric tube for 45 days (Rvb =17.72 +/-1.3 mg/dl); assay type: organism-based; design: dose 20 mg/kg, route oral; settings: in vivo, 1080 h
structure (smiles),measurement,setting,value
Oc1cc(O)c2c(c1)OC(c1ccc(O)c(O)c1)C(O)C2 (stereo not drawn) [CATECHIN],Activity,Rattus norvegicus [1],0.57%
same,Activity,Rattus norvegicus [2],Active
same,Activity,Rattus norvegicus [3],6.58 g/dL
same,Activity,Rattus norvegicus [4],41.95 µg/dL
same,Activity,Rattus norvegicus [5],29.98 mg/dL
same,Activity,Rattus norvegicus [6],109.21 mg/dL
same,Activity,Rattus norvegicus [7],Active
same,Activity,Rattus norvegicus [8],11.98 µg/dL
same,Activity,Rattus norvegicus [9],59.71 µg/dL
same,Activity,Rattus norvegicus [10],54.29 µg/dL
same,Activity,Rattus norvegicus [11],1.78 mg/dL
same,Activity,Rattus norvegicus [12],91.28 mg/dL
same,Activity,Rattus norvegicus [13],20.81 mg/dL
same,Activity,Rattus norvegicus [14],Active
same,Activity,Rattus norvegicus [15],13.21 mg/dL
same,Activity,Rattus norvegicus [16],14.98 mg/dL
same,Activity,Rattus norvegicus [17],60.56 mg/dL
same,Activity,Rattus norvegicus [18],0.99 mg/dL
same,Activity,Rattus norvegicus [19],209.12 g
Oc1cc(O)c2c(c1)O[C@H](c1ccc(O)c(O)c1)[C@@H](O)C2 [CATECHIN],Activity,Rattus norvegicus [20],8.98 g/dL
same,Activity,Rattus norvegicus [21],68.65 mg/dL
same,Activity,Rattus norvegicus [22],55.18 µg/dL
same,Activity,Rattus norvegicus [23],0.46%
same,Activity,Rattus norvegicus [24],239.67 g
same,Activity,Rattus norvegicus [25],98.34 mg/dL
same,Activity,Rattus norvegicus [26],50.87 µg/dL
same,Activity,Rattus norvegicus [27],1.98 mg/dL
same,Activity,Rattus norvegicus [28],14.98 mg/dL
same,Activity,Rattus norvegicus [29],23.98 mg/dL
same,Activity,Rattus norvegicus [30],9.52 µg/dL
same,Activity,Rattus norvegicus [31],36.12 µg/dL
same,Activity,Rattus norvegicus [32],0.98 mg/dL
same,Activity,Rattus norvegicus [33],18.18 mg/dL
